Test results published in patent publication US9193687B2 (priority 2007, dated 2015).
Values joined by “and” are separate entries in the source; they are usually repeats but may differ in a detail not shown here. Equal entries are not always repeated.

Key:
[1] = system: Human mammary carcinoma (MX-1) tumor cells; assay: In vitro cytotoxicity, SRB assay, 72-hr incubation; settings: Homo sapiens, 72 h, read-out: Cytotoxicity IC50, MX-1
[2] = system: Human colon carcinoma HCT-116 cells; assay: cells; settings: HCT-116, 72 h, read-out: Cytotoxicity IC50, HCT-116
CCRF-CEM/Taxol = assay: In vitro cytotoxicity, XTT assay, taxol-resistant subline; settings: Homo sapiens, CCRF-CEM, 72 h, read-out: Cytotoxicity IC50, CCRF-CEM/Taxol
[3] = system: human mammary carcinoma MX-1 xenograft; assay: Antitumor therapeutic effect against MX-1 xenograft in nude mice; format: in vivo; settings: for Therapeutic effect: complete tumor remission (CR), mice with CR/total and day / Maximal body-weight loss (%) / Therapeutic effect: tumor relapse: i.v. injection; for Therapeutic effect: complete tumor remission (CR), mice with CR/total and day: treatment from Day 8, dose and schedule per compound as in Table 3 (30-150 mg/kg); for Maximal body-weight loss (%) / Therapeutic effect: tumor relapse: dose and schedule per compound as in Table 3; for Remark (dose tolerability): BO-1053 70 mg/kg Q2Dx5, BO-1063 and BO-1065 100 mg/kg QDx3, i.v.
Protocol: Athymic nude mice bearing the nu/nu gene were obtained from NCI, Frederick, Md. and used for all human tumor xenografts. Male nude mice 6 weeks or older weighing 20-24 g or more were used. Compounds were administered via the tail vein for i.v. injection or infusion as described previously.^64 A typical formulation for chemotherapeutic studies for each drug was dissolved in DSMO to make a 25 mg/ml fresh solution, 0.4 ml of this solution was mixed with 0.3 ml of Tween 80, plus 1.3 ml to make 2 ml of 5 mg/ml solution. Bolus injection volume was 0.1-0.2 ml per mouse. Tumor volume was assessed by measuring length×width×height (or width) by using a caliper. For tumor-bearing nude mice during the course of the experiment, the body weight refers to total weight minus the weight of the tumor. All animal studies were conducted in accordance with the guidelines for the National Institute of Health Guide for the Care and Use of Animals and the protocol approved by the Institutional Animal Care and Use Committee.
The therapeutic effects of a drug against human tumor xenografts in nude mice, under the optimal therapeutic conditions but without any lethality due to drug toxicity, the following degrees of therapeutic effects are defined and calculated by the following formula: […]
where • T0 is the initial tumor size (in mm^3) at beginning of drug treatment; • Tc is tumor size of untreated control group on a given date; and • Tx is tumor size of the drug treated group on a given date.
[formula] • Tumor disappearance (complete remission or CR) is defined by the effect where • [Tx=0] for a period of time (in days) for a proportion of animals (NCR/N), where • N is the total number of animals in the group, and NCR is the number of mice in the group that achieved CR. • Tumor relapse is quantitatively calculated by • [The Day tumor relapsed (Drelp)—The Day CR achieved (DCR)] (Eq. 3) for a proportion of animals (Nrelp/N) where N is the total number of animals in the group, and Nrelp is the number of the mice in the group that relapsed. • The log cell kill (LCK) of the tumor tissue after a given chemotherapy that reached CR is estimated by: LCK=log [2^(Tumor remission in days/Tumor doubling time in days)] (Eq. 4)
Athymic nude mice bearing the nu/nu gene were used for human breast tumor MX-1 xenograft (FIGS. 3 and 4) and human brain glioma U87 GM xenograft (FIG. 5). Nude mice were obtained from National Cancer Institute, Frederick, Md. Male mice 6 weeks old or older weighing 22 g or more were used for experiments with subcutaneous tumor inoculation as described previously.^67 Drug was administrated via the tail vein by iv injection. Tumor volumes were assessed by measuring length×width×height (or width) by using caliper. Vehicle used was 20 μL DMSO in 180 μL saline. All animal studies were conducted in accordance with the guidelines of the U.S. National Institutes of Health Guide for the Care and Use of Animals and the protocol approved by the Institutional Animal Care and Use Committee.

[4] = system: CCRF-CEM human lymphoblastic leukemia cells; assay: cells; settings: 72 h, read-out: Cytotoxicity IC50, CCRF-CEM

Structure (SMILES)	IC50 [1] [nM]	IC50 [2] [nM]	IC50 (CCRF-CEM/Taxol) [nM]	Therapeutic effect: complete tumor remission (CR), mice with CR/total and day [3]	Maximal body-weight loss (%) [3] [%]	Therapeutic effect: tumor relapse [3]	IC50 [4] [nM]	Remark (dose tolerability) [3]	Therapeutic effect: tumor growth suppression ([3]; 75 mg/kg, QDx8, i.v., 1/1 mouse)
Cc1cccc2c(Nc3cc(CO)cc(NC(=O)Nc4ccc(N(CCCl)CCCl)cc4)c3)c3ccccc3nc12 [BO-1050, 1-{4-[bis(2-chloroethyl)amino]phenyl}-3-[3-hydroxymethyl-5-(4-methylacridin-9-ylamino)phenyl]urea]	120	260	390	achieved CR in parts of the mice and 2/2 CR on D16, 18	9	No relapse on D26	–	–	–
COc1ccc2nc(C)cc(NNC(=O)Nc3ccc(N(CCCl)CCCl)cc3)c2c1 [BO-1228, N-{4-[bis(2-chloroethyl)amino]phenyl}-2-(6-methoxy-2-methyl-4-quinolinyl)hydrazinecarboxamide]	260	260	1540	–	–	–	200	–	–
Cc1cc(NNC(=O)Nc2ccc(N(CCCl)CCCl)cc2)c2ccccc2n1 [BO-1233, N-{4-[bis(2-chloroethyl)amino]phenyl}-2-(2-methyl-4-quinolinyl)hydrazinecarboxamide]	360	380	1830	–	–	–	120	–	–
Cc1ccc(Nc2c3ccccc3nc3ccccc23)cc1NC(=O)Oc1ccc(N(CCCl)CCCl)cc1 [BO-1171]	210	430	220	–	–	–	80	–	–
O=C(Nc1ccc(N(CCCl)CCCl)cc1)Nc1cc(CO)cc(Nc2c3ccccc3nc3ccccc23)c1 [BO-1037, 1-[3-(acridin-9-ylamino)-5-hydroxymethylphenyl]-3-{4-[bis(2-chloroethyl)amino]phenyl}urea]	370	220	17100	achieved CR in parts of the mice and 2/3 CR on D23, 25	12	2/3 relapsed on D40, 40	60	–	–
COc1ccc(Nc2c3ccccc3nc3ccccc23)cc1NC(=O)Oc1ccc(N(CCCl)CCCl)cc1 [BO-1172]	180	190	160	–	–	–	90	–	–
O=C(Nc1ccc(N(CCCl)CCCl)cc1)Nc1c2ccccc2nc2ccccc12 [BO-1034, 1-acridin-9-yl-3-{4-[bis(2-chloroethyl)amino]phenyl}urea]	810	900	390	–	–	–	230	–	–
O=C(NNc1cc(-c2ccccc2)nc2cc3c(cc12)OCO3)Nc1ccc(N(CCCl)CCCl)cc1 [BO-1391]	1020	2020	570	–	–	–	260	–	–
Cc1cc(NC(=O)Nc2ccc(N(CCCl)CCCl)cc2)c2cc(N(C)C)ccc2n1 [BO-1231]	180	300	310	–	–	–	110	–	–
CCOC(=O)Nc1cc(COC(=O)Oc2ccc(N(CCCl)CCCl)cc2)cc(Nc2c3ccccc3nc3ccccc23)c1 [BO-1065, carbonic acid 3-(acridin-9-yl-amino)-5-ethoxycarbonylaminobenzyl ester 4-[bis(2-chloroethyl)amino]phenyl ester]	90	640	510	–	–	–	–	Too high dose	–
O=C(Nc1ccc(Nc2cc(-c3ccccc3)nc3ccccc23)cc1)Nc1ccc(N(CCCl)CCCl)cc1 [BO-2294]	–	–	–	–	–	–	3010	–	–
Cc1cc(NC(=O)Nc2ccc(N(CCCl)CCCl)cc2)cc(Nc2c3ccccc3nc3ccccc23)c1 [BO-1079, 1-[3-(acridin-9-ylamino)-5-methylphenyl]-3-{4-[bis(2-chloroethyl)amino]phenyl}urea]	530	800	380	–	9	–	140	–	1/1, >99% tumor
Cc1ccc(NC(=O)Nc2ccc(N(CCCl)CCCl)cc2)cc1Nc1c2cccc(C)c2nc2c(C(=O)NCCN(C)C)cccc12 [BO-1053, 9-[5-(3-{4-[bis(2-chloroethyl)amino]phenyl}ureido)-2-methyl-phenylamino]-5-methyl-acridine-4-carboxylic acid (2-dimethylaminoethyl)amide]	60	60	180	achieved complete tumor remission	–	–	10	Too high dose	–
Cc1ccc(NC(=O)Nc2ccc(N(CCCl)CCCl)cc2)cc1Nc1c2ccccc2nc2c(C)cccc12 [BO-1149]	590	160	20	–	–	–	10	–	–
COc1ccc(Nc2c3ccccc3nc3ccccc23)cc1NC(=O)Nc1ccc(N(CCCl)CCCl)cc1 [BO-1148]	1200	260	30	–	–	–	10	–	–
COc1ccc(Nc2c3ccccc3nc3c(C)cccc23)cc1NC(=O)Oc1ccc(N(CCCl)CCCl)cc1 [BO-1213]	140	–	30	–	–	–	20	–	–
Cc1cccc2c(Nc3cc(CO)cc(NC(=O)Oc4ccc(N(CCCl)CCCl)cc4)c3)c3ccccc3nc12 [BO-1063, [3-hydroxymethyl-5-(4-methylacridin-9-ylamino)phenyl]carbamic acid 4-[bis(2-chloroethyl)-amino]phenyl ester]	80	440	100	–	–	–	70	Too high dose	–
COc1cc(NC(=O)Oc2ccc(N(CCCl)CCCl)cc2)cc(Nc2c3ccccc3nc3ccccc23)c1 [BO-1066, [3-(acridin-9-ylamino)-5-methoxyphenyl]carbamic acid 4-[bis(2-chloroethyl)amino]phenyl ester]	340	1710	310	achieved complete tumor remission and 1/1 CR on D22	13	–	210	–	–
Cc1cc(NNC(=O)Nc2ccc(N(CCCl)CCCl)cc2)c2cc(N(C)C)ccc2n1 [BO-1242]	280	150	4190	–	–	–	60	–	–
CC[C@]1(O)C[C@@H]2CN(CCc3c([nH]c4ccccc34)[C@@](C(=O)OC)(c3cc4c(cc3OC)N(C)[C@H]3[C@@](O)(C(=O)OC)[C@H](OC(C)=O)[C@]5(CC)C=CCN6CC[C@]43[C@@H]65)C2)C1 [Vinblastine, reference compound]	–	–	80	–	–	–	–	–	–
COc1ccc(Nc2c3ccccc3nc3c(C)cccc23)cc1NC(=O)Nc1ccc(N(CCCl)CCCl)cc1 [BO-1154]	370	70	10	–	–	–	10	–	–
O=C(Nc1ccc(N(CCCl)CCCl)cc1)Nc1cccc(Nc2cc(-c3ccccc3)nc3ccccc23)c1 [BO-2295]	–	–	–	–	–	–	1860	–	–
CC(=O)O[C@H]1C(=O)[C@@]2(C)[C@H]([C@H](OC(=O)c3ccccc3)[C@]3(O)C[C@H](OC(=O)[C@H](O)[C@@H](NC(=O)c4ccccc4)c4ccccc4)C(C)=C1C3(C)C)[C@]1(OC(C)=O)CO[C@@H]1C[C@@H]2O [Taxol, reference compound]	40	–	430	–	–	–	–	–	–
O=C(NNc1cc(-c2ccccc2)nc2ccccc12)Nc1ccc(N(CCCl)CCCl)cc1 [BO-1393]	1780	1260	910	–	–	–	580	–	–
